Results on 13 molecules are retold here after patent publication US20240246918A1, “COMPOUNDS AND COMPOSITIONS AS EIF4E INHIBITORS AND THE USES THEREOF” (Ribometrix, Inc., priority 2022, published 2024).

One experiment deals with T1, human eIF4E protein (Homo sapiens, UniProt P06730).
T1 construct: purchased Novus NBP-45314
The experiment can be described thus: Biochemical competitive binding assay (TR-FRET competition, EDA-m7GDP-ATTO-647N probe). The settings on record: read-out: hEIF4E TR-FRET IC50. The method in brief: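 IC50 values come from 4-parameter fits of the normalized 665/620 nm TR-FRET ratio. Compound was first incubated 15 min with 4 nM recombinant His-eIF4E bound to 2.5 nM Eu-anti-His antibody, then 15 min with 5 nM m7GDP-ATTO-647N tracer, in pH 7.5 HEPES buffer with 100 mM KCl, Tween-20 and BSA.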

Experiment [1] relates to COLO 205 colorectal tumor cells. The experiment can be described thus: Tumor cell viability inhibition assay (CellTiter-Glo 2.0, 72 hours). The experiment is classed as cell-based. The settings on record: COLO 205 cell viability. The method in brief:
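IC50 derived by 4-parameter fitting after normalizing luminescence to DMSO and max-inhibition wells. Compounds tested as 11 concentrations in 4-fold steps on COLO 205 cells seeded at 1500 per well in RPMI-1640/10% FBS; ATP content measured with CellTiter-Glo 2.0 after 72 h.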
(In general: ATP-based viability assays read luminescence as a measure of living cells.)

T1 sequence (P06730 whole entry): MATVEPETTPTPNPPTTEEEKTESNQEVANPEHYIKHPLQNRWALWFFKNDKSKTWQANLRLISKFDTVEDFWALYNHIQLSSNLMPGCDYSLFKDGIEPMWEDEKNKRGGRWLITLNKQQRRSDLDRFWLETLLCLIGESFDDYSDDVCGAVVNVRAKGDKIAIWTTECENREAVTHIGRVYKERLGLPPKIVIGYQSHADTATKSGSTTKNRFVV

Take `Cc1cc(-c2cc(Cl)ccc2OCCn2c(C)nc3c(c2=O)C[C@@H](N2CC[C@H](OC(F)(F)F)C(C)(C)C2)CC3)c2scc(C(=O)O)c2n1` (single isomer, unassigned) [Compound 392]: the IC50 (as a rule, the concentration at which inhibition is half-maximal) is below 0.1 µM on human eIF4E protein and below 5 µM in experiment [1] (Homo sapiens, COLO 205, 72 h).

Take `Cc1cc(-c2cc(Cl)ccc2OCCn2c(C)nc3c(c2=O)CC(CN(C)C)(N2CCC(OC(F)(F)F)CC2)CC3)c2scc(C(=O)O)c2n1` (single isomer, unassigned) [Compound 621]: the IC50 was 0.1 to 0.5 µM at human eIF4E protein and above 20 µM in experiment [1].

As to `Cc1cc(-c2cc(Cl)ccc2OCCn2c(C)nc3c(c2=O)CC(N2CC4CC(C2)C4(F)F)CC3)c2scc(C(=O)O)c2n1` (single isomer, unassigned) [Compound 361], the IC50 at human eIF4E protein is below 0.1 µM; in experiment [1] (Homo sapiens, COLO 205, 72 h) it was below 5 µM.

With `Cc1cc(-c2cc(Cl)ccc2OCCn2c(C)nc3c(c2=O)C[C@H](N2CCC(N4CC(F)(F)C4)CC2)CC3)c2scc(C(=O)O)c2n1` (single isomer, unassigned) [Compound 111], the IC50 at human eIF4E protein is below 0.1 µM; in experiment [1] (Homo sapiens, COLO 205, 72 h), below 5 µM.

Consider `Cc1cc(-c2cc(Cl)ccc2OCCn2c(C)nc3c(c2=O)C[C@H](N2CCCC[C@@H]2c2nccs2)CC3)c2scc(C(=O)O)c2n1` (single isomer, unassigned) [Compound 547], for which the IC50 on human eIF4E protein was below 0.1 µM; in experiment [1] (Homo sapiens, COLO 205, 72 h), below 5 µM.

In the case of `Cc1nc2c(c(=O)n1CC#Cc1ccc(Cl)cc1-c1ccnc3c(C(=O)NS(C)(=O)=O)csc13)CC(N1CCC(OC(F)(F)F)CC1)CC2` (single isomer, unassigned) [Compound 601], the IC50 is below 0.1 µM on human eIF4E protein and below 5 µM in experiment [1].

Regarding `Cc1cc(-c2cc(Cl)ccc2OCCn2c(C)nc3c(c2=O)CC(N2CCC(OC(F)(F)F)CC2)CC32CC2)c2scc(C(=O)NS(C)(=O)=O)c2n1` (single isomer, unassigned) [Compound 579, 7-(5-chloro-2-(2-(2′-methyl-4′-oxo-6′-(4-(trifluoromethoxy)piperidin-1-yl)-6′,7′-dihydro-4′H-spiro[cyclopropane-1,8′-quinazolin]-3′(5′H)-yl)ethoxy)phenyl)-5-methyl-N-(methylsulfonyl)thieno[3,2-b]pyridine-3-carboxamide], the IC50 was below 0.1 µM on human eIF4E protein and below 5 µM in experiment [1] (Homo sapiens, COLO 205, 72 h).

Consider `Cc1cc(-c2cc(Cl)ccc2OCCn2c(C)nc3c(c2=O)CC(N2CCC(CC(F)(F)F)CC2)CC3(C)C)c2scc(C(=O)O)c2n1` (single isomer, unassigned) [Compound 492], for which the 50% inhibitory concentration (IC50) on human eIF4E protein was below 0.1 µM; in experiment [1] (Homo sapiens, COLO 205, 72 h) it was below 5 µM.

With `Cc1cc(-c2cc(Cl)ccc2OCCn2c(C)nc3c(c2=O)C[C@@H](N2CC4(CCC(F)(F)CC4)C2)CC3)c2scc(C(=O)O)c2n1` (single isomer, unassigned) [Compound 128], the IC50 on human eIF4E protein was below 0.1 µM; in experiment [1] (Homo sapiens, COLO 205, 72 h) it was below 5 µM.

Turning to `Cc1cc(-c2cc(Cl)ccc2OCCn2c(C)nc3c(c2=O)C[C@@H](N2CCC(n4ccnn4)CC2)CC3)c2scc(C(=O)O)c2n1` (single isomer, unassigned) [Compound 423], the IC50 at human eIF4E protein was below 0.1 µM; in experiment [1] (Homo sapiens, COLO 205, 72 h) it was 5 to 20 µM.

Consider `Cc1cc(-c2cc(Cl)ccc2OCCn2c(C)nc3c(c2=O)C[C@H](N2CCC4(CC2)COCCO4)CC3)c2scc(C(=O)O)c2n1` (single isomer, unassigned) [Compound 424], for which the IC50 at human eIF4E protein was below 0.1 µM; in experiment [1] (Homo sapiens, COLO 205, 72 h), below 5 µM.

For the molecule `Cc1cc(-c2cc(Cl)ccc2OCCn2c(C)nc3c(c2=O)C[C@@H](N2CCC[C@]4(C2)CC4(F)F)CC3(C)C)c2scc(C(=O)O)c2n1` (single isomer, unassigned) [Compound 440], the IC50 was below 0.1 µM at human eIF4E protein and 5 to 20 µM in experiment [1] (Homo sapiens, COLO 205, 72 h).

Regarding `Cc1cc(-c2cc(Cl)ccc2OCCn2c(C)nc3c(c2=O)C[C@H](N(C)CC2CC(F)(F)C2)CC32CC2)c2scc(C(=O)O)c2n1` (single isomer, unassigned) [Compound 568], the IC50 at human eIF4E protein was below 0.1 µM; in experiment [1] (Homo sapiens, COLO 205, 72 h), below 5 µM.
